The numbers were not newly measured in patent US9155702B2, “Composition and microsphere for controlled-release of exendin, and method preparing the same” (PEPTRON CO., LTD, priority 2007, dated 2015), which cites them from elsewhere.

The subject of this data set is diabetic ob/ob mice. Particulars: intraperitoneal injections once per day.

For exendin-4, the “effect of lowering the blood-sugar level” value is “prolonged effect of lowering the blood-sugar level”.
